# Test results as given in patent US20260062422A1 (Halda Therapeutics OpCo, Inc., priority 2022, published 2026).
# Experiments:
# VCaP cells = assay: Cellular growth inhibition assay for VCaP cells, CellTiter-Glo; format: cell-based, human; conditions: 72 hours treatment, CellTiter-Glo 2.0
# Description: VCaP cells were purchased from American Type Cell Culture (ATCC Cat #CRL2876) and then seeded on poly-D-lysine coated, black clear-bottom 384-well plates at 5000/well in 25 μL Dulbecco's Modified Eagle Medium (DMEM) supplemented with 10% w/w Fetal bovine serum (FBS) and 1% w/w Pen-Strep. Pen-Strep is a commercially available mixture of penicillin G and streptomycin, which is used in mammalian cell culture media to prevent bacterial contamination. Dulbecco's Modified Eagle Medium (DMEM) supplemented with 10% w/w fetal bovine serum (FBS) and 1% w/w Pen-Strep is herein referred to as Treatment Medium. Following seeding of cells in the plates, the plates were spun at 300×g for 30 seconds, then equilibrated to room temperature for 30 minutes, and then deposited in a humidified tissue culture incubator maintained at 37° C. with 5% CO2.
# (§1) At 24 hours after seeding of the cells, dilutions of test compound were prepared in DMSO and dissolved in Treatment Medium, to achieve a final DMSO concentration of 0.5% w/w, thereby providing the Test Compound Solution. A 25 μL aliquot of the Test Compound Solution was added to cells in the well plates. An equal volume of a solution containing DMSO and Treatment Medium was used as a negative control. Following treatment of cells with Test Compound Solution or said equal volume of a solution containing DMSO and Treatment Medium, the plates were spun at 300×g for 30 seconds, and then left in an incubator for 72 hours.
# (§2) At the end of the treatment duration, cell viability was quantified with CellTiter-Glo 2.0 reagent (Promega Cat #G9243). For this purpose, plates were equilibrated to room temperature for 30 minutes, and then 25 μL of CellTiter-Glo 2.0 reagent was added to cells in the plate wells. Plates were then agitated on a shaker for two minutes at 500 rpm and subsequently incubated at room temperature for 10 minutes. Following incubation, the plates were spun at 3000×g for 30 seconds, then sealed with an optical adhesive cover, and luminescence readings were measured with an EnVision Plate Reader.
# (§3) Data was normalized using zero luminescence for baseline. A four-parameter non-linear regression curve fit was applied to dose-response data in GraphPad Prism data analysis software to determine the half-maximal growth inhibitory concentration (GI50) for each test compound.
# T47D cells = assay: Cellular growth inhibition assay for T47D cells, CellTiter-Glo; format: cell-based, human; conditions: 72 hours treatment, CellTiter-Glo 2.0 cell viability
# Description: T47D cells were purchased from American Type Cell Culture (ATCC Cat #HTB-133) and then seeded on poly-D-lysine coated, black clear-bottom 384-well plates at 3000/well in 25 μL Dulbecco's Modified Eagle Medium (DMEM) supplemented with 10% w/w Fetal bovine serum (FBS), 0.2 units/mL recombinant human insulin (Gibco Cat #12585014), and 1% w/w Pen-Strep. Pen-Strep is a commercially available mixture of penicillin G and streptomycin, which is used in mammalian cell culture media to prevent bacterial contamination. Dulbecco's Modified Eagle Medium (DMEM) supplemented with 10% w/w fetal bovine serum (FBS), 0.2 units/mL recombinant human insulin, and 1% w/w Pen-Strep is herein referred to as Treatment Medium. Following seeding of cells in the plates, the plates were spun at 300×g for 30 seconds, then equilibrated to room temperature for 30 minutes, and then deposited in a humidified tissue culture incubator maintained at 37° C. with 5% CO2.
# as §1
# as §2, with “Reader (Perkin Elmer).” for “Reader.”
# as §3
SMILES,"GI50 (VCaP cells; Homo sapiens, VCaP, 72 h) [nM]","GI50 (T47D cells; Homo sapiens, T47D, 72 h) [nM]",GI50 (T47D cells) [nM],GI50 (VCaP cells) [nM]
Cc1sc2c(c1C)C(c1ccc(C[C@H]3CC[C@@H]4CN(c5ncc(C(=O)N[C@H]6C(C)(C)[C@H](Oc7ccc(C#N)c(Cl)c7)C6(C)C)cn5)CCN4C3)cc1)=N[C@@H](Cc1ncco1)c1nnc(C)n1-2 [Compound I-304],< 500,> 3000,,
Cc1sc2c(c1C)C(c1ccc(C[C@@H]3CC[C@@H]4CN(c5ncc(C(=O)N[C@H]6C(C)(C)[C@H](Oc7ccc(C#N)c(Cl)c7)C6(C)C)cn5)CCN4C3)cc1)=N[C@H](Cc1ncco1)c1nnc(C)n1-2 [Compound I-307],< 500,< 500,,
Cc1sc2c(c1C)C(c1ccc(CCO[C@H]3CCCN(c4ncc(C(=O)N[C@H]5C(C)(C)[C@H](Oc6ccc(C#N)c(Cl)c6)C5(C)C)cn4)C3)cc1)=N[C@@H](Cc1ncco1)c1nnc(C)n1-2 [Compound I-323],< 500,< 500,,
Cc1sc2c(c1C)C(c1ccc(CCC[C@@H]3CCCN(c4ncc(C(=O)N[C@H]5C(C)(C)[C@H](Oc6ccc(C#N)c(Cl)c6)C5(C)C)cn4)C3)cc1)=N[C@@H](Cc1ncco1)c1nnc(C)n1-2 [Compound I-320],< 500,< 500,,
Cc1sc2c(c1C)C(c1ccc(C[C@@H]3CC[C@@H]4CN(c5ncc(C(=O)N[C@H]6C(C)(C)[C@H](Oc7ccc(C#N)c(Cl)c7)C6(C)C)cn5)CCN4C3)cc1)=C[C@@H](Cc1ncco1)c1nnc(C)n1-2 [Compound I-305],> 3000,500 to 1500,,
Cc1sc2c(c1C)C(c1ccc(C[C@@H]3CC[C@@]4(C3)CN(c3ncc(C(=O)N[C@H]5C(C)(C)[C@H](Oc6ccc(C#N)c(Cl)c6)C5(C)C)cn3)CCO4)cc1)=N[C@@H](Cc1ncco1)c1nnc(C)n1-2 [Compound I-309],> 3000,> 3000,,
Cc1sc2c(c1C)C(c1ccc(OC3CCN(C4CCN(c5ncc(C(=O)N[C@H]6C(C)(C)[C@H](Oc7ccc(C#N)c(Cl)c7)C6(C)C)cn5)CC4)CC3)cc1)=N[C@@H](Cc1ncco1)c1nnc(C)n1-2 [Compound I-313],< 500,< 500,,
Cc1sc2c(c1C)C(c1ccc(C[C@@H]3CC[C@]4(C3)CN(c3ncc(C(=O)N[C@H]5C(C)(C)[C@H](Oc6ccc(C#N)c(Cl)c6)C5(C)C)cn3)CCO4)cc1)=N[C@@H](Cc1ncco1)c1nnc(C)n1-2 [Compound I-308],> 3000,> 3000,,
Cc1sc2c(c1C)C(c1ccc(C(=O)N3CCC[C@@H](Cc4ncc(C(=O)N[C@H]5C(C)(C)[C@H](Oc6ccc(C#N)c(Cl)c6)C5(C)C)cn4)C3)cc1)=N[C@@H](Cc1ncco1)c1nnc(C)n1-2 [Compound I-318],> 3000,> 3000,,
Cc1sc2c(c1C)C(c1ccc(C[C@H]3CC[C@]4(C3)CN(c3ncc(C(=O)N[C@H]5C(C)(C)[C@H](Oc6ccc(C#N)c(Cl)c6)C5(C)C)cn3)CCO4)cc1)=N[C@@H](Cc1ncco1)c1nnc(C)n1-2 [Compound I-310],< 500,< 500,,
Cc1sc2c(c1C)C(c1ccc(CCC[C@H]3CCCN(c4ncc(C(=O)N[C@H]5C(C)(C)[C@H](Oc6ccc(C#N)c(Cl)c6)C5(C)C)cn4)C3)cc1)=N[C@@H](Cc1ncco1)c1nnc(C)n1-2 [Compound I-321],< 500,< 500,,
Cc1sc2c(c1C)C(c1ccc(N3CC(C4CCN(c5ccc(C(=O)N[C@H]6C(C)(C)[C@H](Oc7ccc(C#N)c(Cl)c7)C6(C)C)cn5)CC4)C3)cc1)=N[C@@H](C)c1nnc(C)n1-2 [Compound I-551],,< 500,,
Cc1sc2c(c1C)C(c1ccc(C3CC3C3CC4(CCN(c5cnc(C(=O)N[C@H]6C(C)(C)[C@H](Oc7ccc(C#N)c(Cl)c7)C6(C)C)cn5)CC4)C3)cc1)=NC(Cc1ncco1)c1nnc(C)n1-2 (stereo partly shown) [Compound I-540],,,< 500,
Cc1sc2c(c1C)C(c1ccc(OC3CC4(C3)CC3(CCN(c5ccc(C(=O)N[C@H]6C(C)(C)[C@H](Oc7ccc(C#N)c(Cl)c7)C6(C)C)nc5)CC3)C4)cc1)=NC1(CC1)c1nnc(C)n1-2 [Compound I-530],,> 3000,,
Cc1sc2c(c1C)C(c1ccc(N3CC(C4CCCC(Cc5ncc(C(=O)N[C@H]6C(C)(C)[C@H](Oc7ccc(C#N)c(Cl)c7)C6(C)C)cn5)C4)C3)cc1)=N[C@@H](Cc1ncco1)c1nnc(C)n1-2 (stereo partly shown) [Compound I-580],,,< 500,
Cc1sc2c(c1C)C(c1ccc(N3CCC[C@H](C(=O)N4CCCC4c4ncc(C(=O)N[C@H]5C(C)(C)[C@H](Oc6ccc(C#N)c(Cl)c6)C5(C)C)cn4)C3)cc1)=N[C@H](Cc1ncco1)c1nnc(C)n1-2 (stereo partly shown) [Compound I-315],> 3000,> 3000,,
Cc1sc2c(c1C)C(c1ccc(CNC(=O)Cc3ncc(C(=O)N[C@H]4C(C)(C)[C@H](Oc5ccc(C#N)c(Cl)c5)C4(C)C)cn3)cc1)=N[C@@H](Cc1ncco1)c1nnc(C)n1-2 [Compound I-316],< 500,500 to 1500,,
Cc1sc2c(c1C)C(c1ccc(N3CC(CC4CCN(c5ccc(C(=O)N[C@H]6C(C)(C)[C@H](Oc7ccc(C#N)c(Cl)c7)C6(C)C)nc5)CC4)C3)cc1)=NC1(CC1)c1nnc(C)n1-2 [Compound I-529],,> 3000,,
Cc1sc2c(c1C)C(c1ccc(CCO[C@@H]3CCCN(c4ncc(C(=O)N[C@H]5C(C)(C)[C@H](Oc6ccc(C#N)c(Cl)c6)C5(C)C)cn4)C3)cc1)=N[C@@H](Cc1ncco1)c1nnc(C)n1-2 [Compound I-322],< 500,< 500,,
Cc1sc2c(c1C)C(c1ccc(C(=O)N3CCC[C@@H](Cc4ncc(C(=O)N[C@H]5C(C)(C)[C@H](Oc6ccc(C#N)c(Cl)c6)C5(C)C)cn4)C3)cc1)=N[C@@H](Cc1ncco1)c1nnc(C)n1-2 [Compound I-319],,,> 3000,1500 to 3000
Cc1sc2c(c1C)C(c1ccc(CC3CC(C4CCCN(c5ncc(C(=O)N[C@H]6C(C)(C)[C@H](Oc7ccc(C#N)c(Cl)c7)C6(C)C)cn5)C4)C3)cc1)=N[C@@H](C)c1nnc(C)n1-2 (stereo partly shown) [Compound I-488],,< 500,,
Cc1sc2c(c1C)C(c1ccc(C#CC3CCC(Cc4ncc(C(=O)N[C@H]5C(C)(C)[C@H](Oc6ccc(C#N)c(Cl)c6)C5(C)C)cn4)CC3)cc1)=N[C@@H](Cc1ncco1)c1nnc(C)n1-2 (stereo partly shown) [Compound I-506],,,500 to 1500,
